Assay results taken from US20120083522A1, “MODULATION OF INFLAMMATORY RESPONSES BY FACTOR XI” (Isis Pharmaceuitcals, inc., priority 2009, published 2012).
In the oligonucleotide strings, read from the 5' end, every base follows the letter of its sugar. An asterisk marks phosphorothioate; unmarked linkages are phosphodiester. Other units and linkages are bracketed, terminal groups are in braces. A string of capitals states the bases alone. e = 2'-O-(2-methoxyethyl) (MOE); [5mC] = 5-methylcytosine; d = 2'-deoxy (DNA)

Key:
Format in all cases: cell-based
human Factor XI mRNA [1] = assay: Dose-dependent antisense inhibition in HepG2 cells, lipofectin (Example 2); conditions: approximately 16 hours
Protocol: Cells were plated at a density of 10,000 cells per well and transfected using lipofectin reagent with 9.375 nM, 18.75 nM, 37.5 nM, 75 nM, and 150 nM concentrations of antisense oligonucleotide, as specified in Table 3. After a treatment period of approximately 16 hours, RNA was isolated from the cells and Factor XI mRNA levels were measured by quantitative real-time PCR. Human Factor XI primer probe set RTS 2966 (forward sequence: […], incorporated herein as SEQ ID NO: 3; reverse sequence: […], incorporated herein as SEQ ID NO: 4; probe sequence: TTGTCTACTGAAGCACACCCAAACAGGGAX, wherein X is the fluorophore, incorporated herein as SEQ ID NO: 5) was used to measure mRNA levels. Factor XI mRNA levels were adjusted according to total RNA content, as measured by RIBOGREEN®. Results are presented as percent inhibition of Factor XI, relative to untreated control cells.

human Factor XI mRNA [2] = assay: Antisense inhibition in HepG2 cells by microwalk gapmers, 8,000 nM, electroporation (Example 14); conditions: HepG2 cells, 8,000 nM
Protocol: These microwalk gapmers were tested in vitro. Cultured HepG2 cells at a density of 20,000 cells per well were transfected using electroporation with 8,000 nM antisense oligonucleotide. After a treatment period of approximately 24 hours, RNA was isolated from the cells and Factor XI mRNA levels were measured by quantitative real-time PCR. Factor XI mRNA levels were adjusted according to total RNA content, as measured by RIBOGREEN. Results are presented as percent inhibition of Factor XI, relative to untreated control cells.
The chimeric antisense oligonucleotides in Table 51 were designed as 5-10-5 MOE, 5-8-5 and 6-8-6 MOE gapmers. The first two listed gapmers in Table 51 are the original gapmers (ISIS 416850 and ISIS 416858) from which ISIS 445493-445543 were designed via microwalk, and are designated by an asterisk. The 5-10-5 gapmers are 20 nucleotides in length, wherein the central gap segment is comprised of ten 2′-deoxynucleotides and is flanked on both sides (in the 5′ and 3′ directions) by wings comprising five nucleotides each. The 5-8-5 gapmers are 18 nucleotides in length, wherein the central gap segment is comprised of eight 2′-deoxynucleotides and is flanked on both sides (in the 5′ and 3′ directions) by wings comprising five nucleotides each. The 6-8-6 gapmers are 20 nucleotides in length, wherein the central gap segment is comprised of eight 2′-deoxynucleotides and is flanked on both sides (in the 5′ and 3′ directions) by wings comprising six nucleotides each. For each of the motifs (5-10-5, 5-8-5 and 6-8-6), each nucleotide in the 5′ wing segment and each nucleotide in the 3′ wing segment has a 2′-MOE modification. The internucleoside linkages throughout each gapmer are phosphorothioate (P═S) linkages. All cytidine residues throughout each gapmer are 5-methylcytidines. “Human Target start site” indicates the 5′-most nucleotide to which the gapmer is targeted in the human sequence. “Human Target stop site” indicates the 3′-most nucleotide to which the gapmer is targeted in the human sequence. Each gapmer listed in Table 51 is targeted to SEQ ID NO: 1 (GENBANK Accession No. NM_000128.3). Each gapmer is Table 51 is also fully cross-reactive with the rhesus monkey Factor XI gene sequence, designated herein as SEQ ID NO: 274 (exons 1-15 GENBANK Accession No. NW—001118167.1). ‘Rhesus monkey start site’ indicates the 5′-most nucleotide to which the gapmer is targeted in the rhesus monkey sequence. ‘Rhesus monkey stop site’ indicates the 3′-most nucleotide to which the gapmer is targeted to the rhesus monkey sequence.

human Factor XI mRNA [3] = assay: Antisense inhibition in HepG2 cells by microwalk gapmers, 75 nM, lipofectin (Example 3); conditions: HepG2 cells, 75 nM, oligonucleotides targeted to nucleobases 1275 to 1318 of SEQ ID NO: 1
How it was run: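 HepG2 cells (10,000 per well) were transfected with 75 nM gapmer using lipofectin and treated for about 24 h. Factor XI mRNA was quantified by real-time PCR, normalized to RiboGreen total RNA and expressed as percent inhibition versus untreated controls.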

human Factor XI mRNA [4] = assay: Dose-dependent inhibition and IC50 in HepG2 cells, electroporation (Example 15)
Protocol: Cells were plated at a density of 20,000 cells per well and transfected using electroporation with 123.46 nM, 370.37 nM, 1,111.11 nM, 3,333.33 nM and 10,000 nM concentrations of antisense oligonucleotide, as specified in Table 52. After a treatment period of approximately 16 hours, RNA was isolated from the cells and Factor XI mRNA levels were measured by quantitative real-time PCR. Human Factor XI primer probe set RTS 2966 was used to measure mRNA levels. Factor XI mRNA levels were adjusted according to total RNA content, as measured by RIBOGREEN. Results are presented as percent inhibition of Factor XI, relative to untreated control cells.

Row | Substance | Percent inhibition of human Factor XI mRNA levels (human Factor XI mRNA [2]) [%] | % inhibition of human Factor XI mRNA levels (human Factor XI mRNA [3]) [%] | percent inhibition of Factor XI mRNA (human Factor XI mRNA [4]; electroporation, 123.47 nM) [%] | percent inhibition of Factor XI mRNA (human Factor XI mRNA [4]; electroporation, 370.37 nM) [%] | percent inhibition of Factor XI mRNA (human Factor XI mRNA [4]; electroporation, 1,111.11 nM) [%] | percent inhibition of Factor XI mRNA (human Factor XI mRNA [4]; electroporation, 3,333.33 nM) [%] | percent inhibition of Factor XI mRNA (human Factor XI mRNA [4]; electroporation, 10,000.0 nM) [%] | further results
1 | 413468 (antisense eG*eT*e[5mC]*eT*eA*dG*dG*dT*d[5mC]*d[5mC]*dA*d[5mC]*dA*dT*dA*eA*eA*eT*eG*eT) [compound 413468] | – | – | – | – | – | – | – | percent inhibition of Factor XI (human Factor XI mRNA [1]; 9.375 nM): 14%; percent inhibition of Factor XI (human Factor XI mRNA [1]; 18.75 nM): 34%; percent inhibition of Factor XI (human Factor XI mRNA [1]; 37.5 nM): 56%; percent inhibition of Factor XI (human Factor XI mRNA [1]; 75 nM): 78%; percent inhibition of Factor XI (human Factor XI mRNA [1]; 150 nM): 75%
2 | 413469 (antisense eT*eG*e[5mC]*e[5mC]*e[5mC]*dT*dT*d[5mC]*dA*dT*dG*dT*d[5mC]*dT*dA*eG*eG*eT*e[5mC]*e[5mC]) [compound 413469] | – | – | – | – | – | – | – | percent inhibition of Factor XI (human Factor XI mRNA [1]; 9.375 nM): 24%; percent inhibition of Factor XI (human Factor XI mRNA [1]; 18.75 nM): 33%; percent inhibition of Factor XI (human Factor XI mRNA [1]; 37.5 nM): 53%; percent inhibition of Factor XI (human Factor XI mRNA [1]; 75 nM): 70%; percent inhibition of Factor XI (human Factor XI mRNA [1]; 150 nM): 84%
3 | 416849 (antisense eG*e[5mC]*eA*e[5mC]*eA*dG*dT*dT*dT*d[5mC]*dT*dG*dG*d[5mC]*dA*eG*eG*e[5mC]*e[5mC]*eT) [compound 416849] | 88 | 88 | 5 | 5 | 26 | 57 | 68 | –
4 | 416853 (antisense eT*eT*eG*eG*eT*dG*d[5mC]*dA*d[5mC]*dA*dG*dT*dT*dT*d[5mC]*eT*eG*eG*e[5mC]*eA) [compound 416853] | 84 | 91 | – | – | – | – | – | –
5 | 416854 (antisense eA*eT*eT*eG*eG*dT*dG*d[5mC]*dA*d[5mC]*dA*dG*dT*dT*dT*e[5mC]*eT*eG*eG*e[5mC]) [compound 416854] | 86 | 90 | – | – | – | – | – | –
6 | 416855 (antisense e[5mC]*eA*eT*eT*eG*dG*dT*dG*d[5mC]*dA*d[5mC]*dA*dG*dT*dT*eT*e[5mC]*eT*eG*eG) [compound 416855] | 85 | 87 | – | – | – | – | – | –
7 | 416857 (antisense e[5mC]*eG*eG*e[5mC]*eA*dT*dT*dG*dG*dT*dG*d[5mC]*dA*d[5mC]*dA*eG*eT*eT*eT*e[5mC]) [compound 416857] | 91 | 92 | 2 | 20 | 35 | 62 | 72 | –
8 | 416862 (antisense eA*eG*e[5mC]*eG*eG*dA*d[5mC]*dG*dG*d[5mC]*dA*dT*dT*dG*dG*eT*eG*e[5mC]*eA*e[5mC]) [compound 416862] | 89 | 90 | – | – | – | – | – | –
9 | 416865 (antisense eT*eG*eG*e[5mC]*eA*dG*d[5mC]*dG*dG*dA*d[5mC]*dG*dG*d[5mC]*dA*eT*eT*eG*eG*eT) [compound 416865] | 86 | 88 | – | – | – | – | – | –
10 | 445498 (antisense GGTGCACAGTTTCTGGCAGG; 6-8-6 gapmer chemistry, chemistry not fully specified) [compound 445498] | 83 | – | 3 | 1 | 27 | 50 | 58 | –
11 | 445503 (antisense GCATTGGTGCACAGTTTCTG; 6-8-6 gapmer chemical modifications, chemistry not fully specified) [compound 445503] | 89 | – | 0 | 0 | 22 | 36 | 60 | IC50 (human Factor XI mRNA [4]; electroporation): 5.9 µM
12 | 445504 (antisense eG*eG*e[5mC]*eA*eT*eT*dG*dG*dT*dG*d[5mC]*dA*d[5mC]*dA*eG*eT*eT*eT*e[5mC]*eT) [compound 445504] | 87 | – | 8 | 20 | 38 | 53 | 68 | –
13 | 445505 (antisense e[5mC]*eG*eG*e[5mC]*eA*eT*dT*dG*dG*dT*dG*d[5mC]*dA*d[5mC]*eA*eG*eT*eT*eT*e[5mC]) [compound 445505] | 89 | – | 12 | 30 | 39 | 59 | 77 | –
14 | 445532 (antisense e[5mC]*eG*eG*e[5mC]*eA*dT*dT*dG*dG*dT*dG*d[5mC]*dA*e[5mC]*eA*eG*eT*eT) [compound 445532] | 89 | – | 5 | 12 | 39 | 60 | 70 | –
15 | 445542 (antisense eT*eG*eG*e[5mC]*eA*dG*d[5mC]*dG*dG*dA*d[5mC]*dG*dG*e[5mC]*eA*eT*eT*eG) [compound 445542] | 83 | – | – | – | – | – | – | –
16 | 445543 (antisense e[5mC]*eT*eG*eG*e[5mC]*dA*dG*d[5mC]*dG*dG*dA*d[5mC]*dG*eG*e[5mC]*eA*eT*eT) [compound 445543] | 74 | – | – | – | – | – | – | –
